Laboratory results published in publication PMC12613848, “First in human phase 1 study of DT2216, a selective BCL-xL degrader, in patients with relapsed/refractory solid malignancies” (Journal of Hematology & Oncology, 2025).
Entries after “also recorded” stand apart in the source; their conditions may differ. Where two headings read alike, the source gives them in different places.

Assay: Plasma pharmacokinetics of DT2216 in patients, phase 1 dose escalation
Format: in vivo, human
Details: for ArAUC0−24 (accumulation ratio) / Vd / clearance / half-life / AUC(0-t) / AUC(0-inf) / Cmax / Tmax: plasma; for Vd / clearance / half-life / AUC(0-t) / AUC(0-inf) / Cmax / Tmax: human; for AUC(0-inf): read-out: AUC0−∞; for Cmax: read-out: Cmax; for Tmax: median (min, max)
Description: Dose escalation consisted of the administration of DT2216 intravenously twice weekly at several different doses outlined in protocol attached. The starting dose was 0.04 mg/kg, established based on pre-clinical toxicity studies. Safety was evaluated using CTCAE version 5.0. The initial three dose levels enrolled one patient, following which for dose level 4 and 5, a 3 + 3 design was utilized following a 100% incremental dose increase for dose levels 2 to 5 until the first dose limiting toxicity (DLT) in cycle 1 was observed. Thereafter, a modified Fibonacci sequence was used to define dose escalation increments until the maximum tolerated dose (MTD) was reached as described in protocol. If no dose-limiting toxicity (DLT) was observed during the DLT monitoring period of first 28 days, the next patient was enrolled at the next higher dose level. Dose-limiting toxicities (DLTs) during the first treatment cycle were defined as any Grade 5 toxicity; Grade 4 neutropenia lasting > 7 days; febrile neutropenia; Grade 4 thrombocytopenia or Grade 3 thrombocytopenia with clinically significant hemorrhage or lasting ≥ 7 days; and Grade ≥ 3 non-hematologic toxicities, excluding nausea, vomiting, or diarrhea lasting ≤ 3 days or transient laboratory abnormalities resolving within 72 h. Hepatotoxicity meeting Hy’s law criteria was also considered a DLT. Transient Grade 3–4 electrolyte abnormalities resolving to ≤ Grade 2 within 72 h were not considered DLTs.
Patients were allowed a maximum of two intra-patient dose escalations. Patients received DT2216 by intravenous infusion on days 1 and 4 weekly for at least 4 weeks, with each cycle consisting of a 28-day cycle for a maximum duration of 1 year until disease progression, unacceptable toxicity, or other withdrawal criteria, as listed in the protocol. The extent of disease was evaluated using imaging studies and disease-appropriate tumor markers every 8 weeks from day 1 of the first cycle. RP2D was established based on MTD as well as other relevant data, including clinical signals of activity, PK, and PD data.
Premedication prior to each infusion was at the discretion of the investigator or according to institutional guidelines. Patient assessment and follow-up procedures can be found in the schedule of assessments in this study. The clinical response was evaluated using RECIST v1.1 per protocol. Blood samples were collected for PK analysis before and after post-infusion at defined intervals, along with platelet counts. Exploratory biomarkers include (but are not limited to) the assessment of BCL-XL and VHL levels in peripheral white blood cells (WBC).
Throughout the course of the dose escalation trial, only one dose-limiting toxicity was observed, with grade 4 thrombocytopenia at a dose level of 0.32 mg/kg. […] The pharmacokinetic parameters of DT2216 were determined in patients following doses on Cycle 1 Day 1 and Cycle 1 Day 22 (Tables 4 and 5). […] AUC0-∞ values ranged from 8650 to 72,300 ng · h/mL over the dose range of 0.04 mg/kg 0.4 mg/kg. […] The volume of distribution at steady state (Vss) was small (< 100 mL/kg) and consistent across the dose groups. Following repeated dosing, accumulation of DT2216 in plasma was not observed with twice weekly dosing, with accumulation ratio values ranging from 0.74 to 1.07 on Cycle 1 Day 22 ([…]) across the dose groups.

[1] = iv, 0.04 mg/kg, Cycle 1 Day 1, 0.04 mg/kg IV, mean (CV%), N = 1
[2] = iv, 0.04 mg/kg, Cycle 1 Day 22, 0.04 mg/kg IV BIW, mean (CV%), N = 1
[3] = iv, 0.08 mg/kg, Cycle 1 Day 1, 0.08 mg/kg IV, mean (CV%), N = 1
[4] = iv, 0.08 mg/kg, Cycle 1 Day 22, 0.08 mg/kg IV BIW, mean (CV%), N = 1
[5] = iv, 0.12 mg/kg, Cycle 1 Day 1, 0.12 mg/kg IV, mean (CV%), N = 1

For `Cc1ncsc1-c1ccc([C@H](C)NC(=O)[C@@H]2C[C@@H](O)CN2C(=O)[C@@H](NC(=O)CCCCCC(=O)N2CCN(CC[C@H](CSc3ccccc3)Nc3ccc(S(=O)(=O)NC(=O)c4ccc(N5CCN(CC6=C(c7ccc(Cl)cc7)CCC(C)(C)C6)CC5)cc4)cc3S(=O)(=O)C(F)(F)F)CC2)C(C)(C)C)cc1` [DT2216], the “dose proportionality of plasma exposure (AUC)” value (0.04 to 0.4 mg/kg IV BIW) was “dose proportional with no dose accumulation; also recorded: dose proportional increase in DT2216 exposure”, the maximum concentration (0.4 BIW dose) was 8590 ng/mL and the “ArAUC0−24 (accumulation ratio)” value (Cycle 1 Day 22, 0.04 mg/kg IV BIW, mean (CV%), N = 1) was 0.90 (N = 1). The “ArAUC0−24 (accumulation ratio)” value (Cycle 1 Day 22, 0.08 mg/kg IV BIW, mean (CV%), N = 1) was 0.74 (N = 1), the “ArAUC0−24 (accumulation ratio)” value (Cycle 1 Day 22, 0.12 mg/kg IV BIW, mean (CV%), N = 1) was 1.07 (N = 1) and the “ArAUC0−24 (accumulation ratio)” value (Cycle 1 Day 22, 0.24 mg/kg IV BIW, mean (CV%), N = 6) was 1.08 (11.6) (N = 6). The “ArAUC0−24 (accumulation ratio)” value (Cycle 1 Day 22, 0.32 mg/kg IV BIW, mean (CV%), N = 5) was 1.02 (6.7) (N = 5), the “ArAUC0−24 (accumulation ratio)” value (Cycle 1 Day 22, 0.4 mg/kg IV BIW, mean (CV%), N = 4) was 1.01 (8.7) (N = 4) and the “steady state of plasma concentration” value (based on pre-dose and 2-hour post infusion plasma concentrations) was “reached by at least Cycle 1, Day 15”. The Vd (intravenous, consistent across the dose groups, read-out: volume of distribution at steady state (Vss)) was under 0.1 L/kg, the clearance (intravenous, over the dose range tested, read-out: clearance values) was 0.0683 to 0.132 mL/min/kg and the half-life (intravenous, over the dose range tested, independent of dose, read-out: mean half-life) was 7.09 to 12.8 h. It also gave an AUC(0-t) (iv, 0.04 mg/kg, Cycle 1 Day 1, 0.04 mg/kg IV, mean (CV%), N = 1, read-out: AUC0−24) of 5920 ng·h/mL, an AUC(0-inf) [1] of 8650 ng·h/mL and an AUC(0-t) (iv, 0.04 mg/kg, Cycle 1 Day 1, 0.04 mg/kg IV, mean (CV%), N = 1, read-out: AUClast) of 8470 ng·h/mL. It also gave a clearance (iv, 0.04 mg/kg, Cycle 1 Day 1, 0.04 mg/kg IV, mean (CV%), N = 1, read-out: CL (converted)) of 0.077 mL/min/kg, a Cmax [1] of 738 ng/mL and a half-life (iv, 0.04 mg/kg, Cycle 1 Day 1, 0.04 mg/kg IV, mean (CV%), N = 1, read-out: T½ (converted)) of 12.8 h. It also gave a Vd (iv, 0.04 mg/kg, Cycle 1 Day 1, 0.04 mg/kg IV, mean (CV%), N = 1, read-out: Vdss) of 0.0776 L/kg, a Tmax (iv, 0.04 mg/kg, Cycle 1 Day 1, 0.04 mg/kg IV, N = 1) of 0.75 h and an AUC(0-t) (iv, 0.04 mg/kg, Cycle 1 Day 22, 0.04 mg/kg IV BIW, mean (CV%), N = 1, read-out: AUC0−24) of 5350 ng·h/mL. The AUC(0-inf) [2] was 6230 ng·h/mL, the AUC(0-t) (iv, 0.04 mg/kg, Cycle 1 Day 22, 0.04 mg/kg IV BIW, mean (CV%), N = 1, read-out: AUClast) was 5390 ng·h/mL and the clearance (iv, 0.04 mg/kg, Cycle 1 Day 22, 0.04 mg/kg IV BIW, mean (CV%), N = 1, read-out: CL (converted)) was 0.107 mL/min/kg. The Cmax [2] was 541 ng/mL, the half-life (iv, 0.04 mg/kg, Cycle 1 Day 22, 0.04 mg/kg IV BIW, mean (CV%), N = 1, read-out: T½ (converted)) was 8.18 h and the Vd (iv, 0.04 mg/kg, Cycle 1 Day 22, 0.04 mg/kg IV BIW, mean (CV%), N = 1, read-out: Vdss) was 0.081 L/kg. It also gave a Tmax (iv, 0.04 mg/kg, Cycle 1 Day 22, 0.04 mg/kg IV BIW, N = 1) of 2.5 h, an AUC(0-t) (iv, 0.08 mg/kg, Cycle 1 Day 1, 0.08 mg/kg IV, mean (CV%), N = 1, read-out: AUC0−24) of 13400 ng·h/mL and an AUC(0-inf) [3] of 19500 ng·h/mL. The AUC(0-t) (iv, 0.08 mg/kg, Cycle 1 Day 1, 0.08 mg/kg IV, mean (CV%), N = 1, read-out: AUClast) was 19100 ng·h/mL, the clearance (iv, 0.08 mg/kg, Cycle 1 Day 1, 0.08 mg/kg IV, mean (CV%), N = 1, read-out: CL (converted)) was 0.0683 mL/min/kg and the Cmax [3] was 1450 ng/mL. For the same compound, the half-life (iv, 0.08 mg/kg, Cycle 1 Day 1, 0.08 mg/kg IV, mean (CV%), N = 1, read-out: T½ (converted)) was 12.5 h, the Vd (iv, 0.08 mg/kg, Cycle 1 Day 1, 0.08 mg/kg IV, mean (CV%), N = 1, read-out: Vdss) was 0.07 L/kg and the Tmax (iv, 0.08 mg/kg, Cycle 1 Day 1, 0.08 mg/kg IV, N = 1) was 1.5 h. It also gave an AUC(0-t) (iv, 0.08 mg/kg, Cycle 1 Day 22, 0.08 mg/kg IV BIW, mean (CV%), N = 1, read-out: AUC0−24) of 9840 ng·h/mL, an AUC(0-inf) [4] of 11700 ng·h/mL and an AUC(0-t) (iv, 0.08 mg/kg, Cycle 1 Day 22, 0.08 mg/kg IV BIW, mean (CV%), N = 1, read-out: AUClast) of 9910 ng·h/mL. It also gave a clearance (iv, 0.08 mg/kg, Cycle 1 Day 22, 0.08 mg/kg IV BIW, mean (CV%), N = 1, read-out: CL (converted)) of 0.114 mL/min/kg, a Cmax [4] of 962 ng/mL and a half-life (iv, 0.08 mg/kg, Cycle 1 Day 22, 0.08 mg/kg IV BIW, mean (CV%), N = 1, read-out: T½ (converted)) of 8.63 h. It also gave a Vd (iv, 0.08 mg/kg, Cycle 1 Day 22, 0.08 mg/kg IV BIW, mean (CV%), N = 1, read-out: Vdss) of 0.091 L/kg, a Tmax (iv, 0.08 mg/kg, Cycle 1 Day 22, 0.08 mg/kg IV BIW, N = 1) of 2.5 h and an AUC(0-t) (iv, 0.12 mg/kg, Cycle 1 Day 1, 0.12 mg/kg IV, mean (CV%), N = 1, read-out: AUC0−24) of 12900 ng·h/mL. It also gave an AUC(0-inf) [5] of 18000 ng·h/mL, an AUC(0-t) (iv, 0.12 mg/kg, Cycle 1 Day 1, 0.12 mg/kg IV, mean (CV%), N = 1, read-out: AUClast) of 17900 ng·h/mL and a clearance (iv, 0.12 mg/kg, Cycle 1 Day 1, 0.12 mg/kg IV, mean (CV%), N = 1, read-out: CL (converted)) of 0.111 mL/min/kg. For the same compound, the Cmax [5] was 3710 ng/mL, the half-life (iv, 0.12 mg/kg, Cycle 1 Day 1, 0.12 mg/kg IV, mean (CV%), N = 1, read-out: T½ (converted)) was 8.92 h and the Vd (iv, 0.12 mg/kg, Cycle 1 Day 1, 0.12 mg/kg IV, mean (CV%), N = 1, read-out: Vdss) was 0.0557 L/kg. It also gave a Tmax (iv, 0.12 mg/kg, Cycle 1 Day 1, 0.12 mg/kg IV, N = 1) of 0.75 h, an AUC(0-t) (iv, 0.12 mg/kg, Cycle 1 Day 22, 0.12 mg/kg IV BIW, mean (CV%), N = 1, read-out: AUC0−24) of 13900 ng·h/mL and an AUC(0-inf) (iv, 0.12 mg/kg, Cycle 1 Day 22, 0.12 mg/kg IV BIW, mean (CV%), N = 1) of 14500 ng·h/mL. For the same compound, the AUC(0-t) (iv, 0.12 mg/kg, Cycle 1 Day 22, 0.12 mg/kg IV BIW, mean (CV%), N = 1, read-out: AUClast) was 13900 ng·h/mL.
